Results taken from the NIST ThermoML archive (doi:10.1021/je301084m).

Test: molar heat capacity at constant pressure; wn = mass fraction of the nth substance listed
Conditions: 101 kPa, Liquid, Small sample (50 mg) DSC

O=[N+]([O-])[O-].[Li+] [lithium nitrate] + O
molar heat capacity at constant pressure [J/K/mol]
Conditions | 303.15 K | 313.15 K | 323.15 K | 333.15 K | 343.15 K | 353.15 K | 363.15 K | 373.15 K
w1 = 0.3 | 79.48 | 80.01 | 80.61 | 81.26 | 81.58 | 82.28 | 82.69 | –
w1 = 0.35 | 78.8 | 79.55 | 80.5 | 81.18 | 81.76 | 82.27 | 82.93 | –
w1 = 0.4 | 78.86 | 79.65 | 80.42 | 81.37 | 81.83 | 82.62 | 83.28 | 84.15
w1 = 0.45 | 80.9 | 81.5 | 81.79 | 82.23 | 82.71 | 83.71 | 84.98 | 86.11
w1 = 0.5 | 82.01 | 82.67 | 83.53 | 83.73 | 84.07 | 84.56 | 85.84 | 86.64
w1 = 0.55 | 83.66 | 84.48 | 84.72 | 84.66 | 85.17 | 86.18 | 87.3 | 88.09
w1 = 0.6 | – | 86.04 | 86.29 | 86.88 | 87.07 | 87.75 | 88.43 | 89.63
